For the data set, the system named is MCF7. As to the kind of experiment: HRG-induced Akt activation (dPAkt = log2 pAkt/Akt HRG-stimulated minus log2 pAkt/Akt basal) (log2 ratio difference); higher = stronger HRG-induced Akt(T308) phosphorylation. The following applies: miRNA mimic concentration 10 nM; time after transfection 72 h; heregulin 10 ng/ml; stimulation time 1 h. The method, boiled down: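 MCF7 cells were plated […] in 96-well plates and transfected in two biological replicates with a library of 879 miRNA mimics (10 nM final) using Lipofectamine RNAiMax; 72 h later they were stimulated for 1 h with 10 ng/ml heregulin-beta1 or left unstimulated. After fixation in 4% PFA, phospho-Akt(T308) and total Akt were measured by In-Cell Western on an Odyssey, with signals corrected for column-wise fixation decay. Heregulin-induced Akt activation is the stimulated minus unstimulated value of the log ratio of phospho-Akt to total Akt, averaged over replicates. That log ratio is log2(pAkt/Akt).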

The text below walks through data of the supplement of paper PMC4314810.

± gives the standard deviation of the averaged measurements.

As for UCCUGCGCGUCCCAGAUGCCC, the “HRG-induced Akt activation (log2)” value stood at 1.15 ± 0.34. Next, UCCUGUACUGAGCUGCCCCGAG: 1.79 ± 0.1; UCCUUCAUUCCACCGGAGUCUG: 1.66 ± 0.26; UCCUUCUGCUCCGUCCCCCAG: 1.47 ± 0.042.

As to UCGACAGCACGACACUGCCUUC, the “HRG-induced Akt activation (log2)” value is 1.4 ± 0.42. Next, UCGAGGAGCUCACAGUCUAGU: 1.71 ± 0.23; UCGCCUCCUCCUCUCCC: 1.47 ± 0.17; UCGGAUCCGUCUGAGCUUGGCU: 1.88 ± 0.18.

As to UCGGCCUGACCACCCACCCCAC, the “HRG-induced Akt activation (log2)” value was 0.936 ± 0.2. The result for UCGGGGAUCAUCAUGUCACGAGA reads 1.93 ± 0.17. Consider UCGUACCGUGAGUAAUAAUGCG, for which the “HRG-induced Akt activation (log2)” value came out at 1.27 ± 0.031. Regarding UCGUGCAUCCCUUUAGAGUGUU, the “HRG-induced Akt activation (log2)” value was found to be 1.6 ± 0.022. The result for UCGUGGCCUGGUCUCCAUUAU reads 1.03 ± 0.11. For the sequence UCGUGUCUUGUGUUGCAGCCGG, the “HRG-induced Akt activation (log2)” value was 1.14 ± 0.13.

In the case of UCGUUUGCCUUUUUCUGCUU, the “HRG-induced Akt activation (log2)” value was determined as 1.46 ± 0.3. As to UCUACAAAGGAAAGCGCUUUCU, the “HRG-induced Akt activation (log2)” value turned out to be 1.02 ± 0.55. Next, UCUACAGUGCACGUGUCUCCAG: 1.65 ± 0.062; UCUAGGCUGGUACUGCUGA: 1.57 ± 0.13. Next, UCUAGUAAGAGUGGCAGUCGA: 1.322 ± 0.0056; UCUAUACAGACCCUGGCUUUUC: 1.14 ± 0.18. With UCUCACACAGAAAUCGCACCCGU, the “HRG-induced Akt activation (log2)” value amounted to 1.92 ± 0.12. UCUCCCAACCCUUGUACCAGUG: the “HRG-induced Akt activation (log2)” value amounted to 1.51 ± 0.26. In the case of UCUCGCUGGGGCCUCCA, the “HRG-induced Akt activation (log2)” value turned out to be 1.22 ± 0.36.

With UCUCUGGAGGGAAGCACUUUCUG, the “HRG-induced Akt activation (log2)” value amounted to 1.33 ± 0.18. As to UCUCUGGGCCUGUGUCUUAGGC, the “HRG-induced Akt activation (log2)” value is 1.55 ± 0.3. Next, UCUGCAGGGUUUGCUUUGAG: 1.07 ± 0.059; UCUGCCCCCUCCGCUGCUGCCA: 1.55 ± 0.069.

For UCUGCUCAUACCCCAUGGUUUCU, the “HRG-induced Akt activation (log2)” value stood at 1.15 ± 0.24. Next, UCUGGCUCCGUGUCUUCACUCCC: 0.873 ± 0.15. Turning to UCUGGGCAACAAAGUGAGACCU, the “HRG-induced Akt activation (log2)” value worked out at 0.753 ± 0.69. Next, UCUUCUCUGUUUUGGCCAUGUG: 1.27 ± 0.041; UCUUGGAGUAGGUCAUUGGGUGG: 1.56 ± 0.046; UCUUGUGUUCUCUAGAUCAGU: 1.53 ± 0.22. Next, UCUUUGGUUAUCUAGCUGUAUGA: 1.96 ± 0.15; UGAAACAUACACGGGAAACCUC: 1.0374 ± 0.0008. As for UGAAGGUCUACUGUGUGCCAGG, the “HRG-induced Akt activation (log2)” value is 1.11 ± 0.052. Turning to UGACAACUAUGGAUGAGCUCU, the “HRG-induced Akt activation (log2)” value amounted to 1.53 ± 0.29. The result for UGACCGAUUUCUCCUGGUGUUC reads 2.09 ± 0.076; that for UGAGAACCACGUCUGCUCUGAG, 2.16 ± 0.27; that for UGAGAACUGAAUUCCAUAGGCU, 2.34 ± 0.1.

For the sequence UGAGAACUGAAUUCCAUGGGUU, the “HRG-induced Akt activation (log2)” value came to 2.55 ± 0.058. As for UGAGACCUCUGGGUUCUGAGCU, the “HRG-induced Akt activation (log2)” value is 1.95 ± 0.023. The result for UGAGAUGAAGCACUGUAGCUC reads 1.18 ± 0.22. Next, UGAGCCCCUGUGCCGCCCCCAG: 2.137 ± 0.01; UGAGCCCUGUCCUCCCGCAG: 2.24 ± 0.29.

As to UGAGCGCCUCGACGACAGAGCCG, the “HRG-induced Akt activation (log2)” value came to 1.29 ± 0.043. The result for UGAGCUAAAUGUGUGCUGGGA reads 1.26 ± 0.69; that for UGAGCUGCUGUACCAAAAU, 2.107 ± 0.0035; that for UGAGGCAGUAGAUUGAAU, 1.49 ± 0.26. For the sequence UGAGGGGCAGAGAGCGAGACUUU, the “HRG-induced Akt activation (log2)” value is 1.83 ± 0.26.

In the case of UGAGGUAGGAGGUUGUAUAGUU, the “HRG-induced Akt activation (log2)” value worked out at 1.11 ± 0.083. Take UGAGGUAGUAAGUUGUAUUGUU: the “HRG-induced Akt activation (log2)” value amounted to 1.6 ± 0.43. Next, UGAGGUAGUAGAUUGUAUAGUU: 1.22 ± 0.24. As to UGAGGUAGUAGGUUGUAUAGUU, the “HRG-induced Akt activation (log2)” value is 1.26 ± 0.07. Next, UGAGGUAGUAGGUUGUAUGGUU: 1.07 ± 0.07. Next, UGAGGUAGUAGGUUGUGUGGUU: 1.08 ± 0.14; UGAGGUAGUAGUUUGUACAGUU: 1.47 ± 0.12; UGAGGUAGUAGUUUGUGCUGUU: 1.12 ± 0.026.
